Test results from patent US11613538B2, “Method of inhibiting or reducing a viral infection” (PTC Therapeutics, Inc., priority 2009, dated 2023).

Tested on: hypoxia-induced VEGF production in HeLa cells
Assay: cells
Format: cell-based, human
Conditions: Homo sapiens, HeLa

**Q.** For CN1CCC(COc2ccc(C3c4[nH]c5ccc(Cl)cc5c4CCN3C(=O)Oc3ccc(Cl)cc3)cc2)CC1 (stereo not drawn) [Compound 1099], which EC50 is on record?
**A.** 8 to 40 nM

**Q.** For COC(=O)N1CCc2c([nH]c3ccc(Cl)cc23)C1c1ccc(OCCCN2CCOCC2)cc1 (stereo not drawn) [Compound 1100], which EC50 is on record?
**A.** 8 to 40 nM

**Q.** With COC(=O)N1CCc2c([nH]c3ccc(Cl)cc23)C1c1ccc(OCCCN2CCN(C)CC2)cc1 (stereo not drawn) [Compound 1101] as the compound, how does the EC50 read?
**A.** 40 to 200 nM

**Q.** How did the EC50 turn out when CC(C)OC(=O)N1CCc2c([nH]c3ccc(Cl)cc23)C1c1ccc(OCCCN2CCOCC2)cc1 (stereo not drawn) [Compound 1102] was run?
**A.** < 8 nM

**Q.** How did the EC50 turn out when CC(C)OC(=O)N1CCc2c([nH]c3ccc(Cl)cc23)C1c1ccc(OCCCN2CCN(C)CC2)cc1 (stereo not drawn) [Compound 1103] was run?
**A.** 8 to 40 nM

**Q.** With CC(C)COC(=O)N1CCc2c([nH]c3ccc(Cl)cc23)C1c1ccc(OCCCN2CCN(C)CC2)cc1 (stereo not drawn) [Compound 1104] as the compound, how does the EC50 read?
**A.** 8 to 40 nM

**Q.** How did the EC50 turn out when CCCOC(=O)N1CCc2c([nH]c3ccc(Cl)cc23)C1c1ccc(OCCCN2CCOCC2)cc1 (stereo not drawn) [Compound 1105] was run?
**A.** < 8 nM

**Q.** How did the EC50 turn out when O=C(OCc1ccccc1)N1CCc2c([nH]c3ccc(Cl)cc23)C1c1ccc(OCCCN2CCOCC2)cc1 (stereo not drawn) [Compound 1106] was run?
**A.** < 8 nM

**Q.** For O=C(OCc1ccccc1)N1CCc2c([nH]c3ccc(Cl)cc23)C1c1ccc(OCCCn2ccnn2)cc1 (stereo not drawn) [Compound 1107], which EC50 is on record?
**A.** < 8 nM

**Q.** Which EC50 does the source give for COc1ccc(OC(=O)N2CCc3c([nH]c4ccc(Cl)cc34)C2c2ccc(OCCCN3CCN(C)CC3)cc2)cc1 (stereo not drawn) [Compound 1108] here?
**A.** 8 to 40 nM

**Q.** For COCCOC(=O)N1CCc2c([nH]c3ccc(Cl)cc23)C1c1ccc(OCCCO)cc1 (stereo not drawn) [Compound 1109], which EC50 is on record?
**A.** < 8 nM

**Q.** For O=C(Oc1ccc(Cl)cc1)N1CCc2c([nH]c3ccc(Cl)cc23)C1c1ccc(OCCCO)cc1 (stereo not drawn) [Compound 1111], which EC50 is on record?
**A.** < 8 nM

**Q.** How did the EC50 turn out when CCOC(=O)N1CCc2c([nH]c3ccc(Cl)cc23)C1c1cccc(OCCCN2CCN(C)CC2)c1 (stereo not drawn) [Compound 1112] was run?
**A.** > 1000 nM

**Q.** CN1CCN(CCCOc2cccc(C3c4[nH]c5ccc(Cl)cc5c4CCN3C(=O)Oc3ccc(F)cc3)c2)CC1 (stereo not drawn) [Compound 1113] was tested. Which EC50 did it give?
**A.** 200 to 1000 nM

**Q.** How did the EC50 turn out when CCOC(=O)N1CCc2c([nH]c3ccc(Cl)cc23)C1c1cccc(OCCCN2CCOCC2)c1 (stereo not drawn) [Compound 1114] was run?
**A.** 8 to 40 nM

**Q.** How did the EC50 turn out when O=C(Oc1ccc(F)cc1)N1CCc2c([nH]c3ccc(Cl)cc23)C1c1cccc(OCCCN2CCOCC2)c1 (stereo not drawn) [Compound 1115] was run?
**A.** 8 to 40 nM

**Q.** With CCOC(=O)N1CCc2c([nH]c3ccc(Cl)cc23)C1c1cccc(OCCCN2CCSCC2)c1 (stereo not drawn) [Compound 1116] as the compound, how does the EC50 read?
**A.** 8 to 40 nM

**Q.** O=C(Oc1ccc(F)cc1)N1CCc2c([nH]c3ccc(Cl)cc23)C1c1cccc(OCCCN2CCSCC2)c1 (stereo not drawn) [Compound 1117] was tested. Which EC50 did it give?
**A.** 8 to 40 nM

**Q.** For CCOC(=O)N1CCc2c([nH]c3ccc(Cl)cc23)C1c1cccc(OCCCN(CCOC)CCOC)c1 (stereo not drawn) [Compound 1118], which EC50 is on record?
**A.** 200 to 1000 nM

**Q.** Which EC50 does the source give for COCCN(CCCOc1cccc(C2c3[nH]c4ccc(Cl)cc4c3CCN2C(=O)Oc2ccc(F)cc2)c1)CCOC (stereo not drawn) [Compound 1119] here?
**A.** 40 to 200 nM

**Q.** How did the EC50 turn out when CCOC(=O)N1CCc2c([nH]c3ccc(Cl)cc23)C1c1cccc(OCCCN(C)CCOC)c1 (stereo not drawn) [Compound 1120] was run?
**A.** 200 to 1000 nM

**Q.** COCCN(C)CCCOc1cccc(C2c3[nH]c4ccc(Cl)cc4c3CCN2C(=O)Oc2ccc(F)cc2)c1 (stereo not drawn) [Compound 1121] was tested. Which EC50 did it give?
**A.** > 1000 nM

**Q.** How did the EC50 turn out when CCOC(=O)N1CCc2c([nH]c3ccc(Cl)cc23)C1c1cccc(OCCCn2ccnc2)c1 (stereo not drawn) [Compound 1122] was run?
**A.** > 1000 nM

**Q.** Which EC50 does the source give for CCOC(=O)N1CCc2c([nH]c3ccc(Cl)cc23)C1c1cccc(OCCCn2ccnn2)c1 (stereo not drawn) [Compound 1124] here?
**A.** 200 to 1000 nM

**Q.** COc1cc(C2c3[nH]c4ccc(Cl)cc4c3CCN2C(=O)Oc2ccccc2)ccc1OCCCN1CCOCC1 (stereo not drawn) [Compound 1130] was tested. Which EC50 did it give?
**A.** 8 to 40 nM

**Q.** How did the EC50 turn out when COc1ccc(OC(=O)N2CCc3c([nH]c4ccc(Cl)cc34)C2c2ccc(OCCCN3CCOCC3)c(OC)c2)cc1 (stereo not drawn) [Compound 1131] was run?
**A.** 8 to 40 nM

**Q.** COc1cc(C2c3[nH]c4ccc(Cl)cc4c3CCN2C(=O)Oc2ccc(C)cc2)ccc1OCCCN1CCOCC1 (stereo not drawn) [Compound 1132] was tested. Which EC50 did it give?
**A.** 8 to 40 nM

**Q.** How did the EC50 turn out when COc1cc(C2c3[nH]c4ccc(Cl)cc4c3CCN2C(=O)Oc2ccc(F)cc2)ccc1OCCCN1CCOCC1 (stereo not drawn) [Compound 1133] was run?
**A.** < 8 nM

**Q.** Cc1ccc(C(=O)N2CCc3c([nH]c4ccc(Cl)cc34)C2c2ccc(OCCCn3cncn3)cc2)cc1 (stereo not drawn) [Compound 1135] was tested. Which EC50 did it give?
**A.** 8 to 40 nM

**Q.** Which EC50 does the source give for O=C(c1ccc(Cl)cc1)N1CCc2c([nH]c3ccc(Cl)cc23)C1c1ccc(OCCCN2CCOCC2)cc1 (stereo not drawn) [Compound 1136] here?
**A.** 40 to 200 nM

**Q.** How did the EC50 turn out when O=C(c1ccc(F)cc1)N1CCc2c([nH]c3ccc(Cl)cc23)C1c1ccc(OCCCn2cncn2)cc1 (stereo not drawn) [Compound 1138] was run?
**A.** 8 to 40 nM

**Q.** How did the EC50 turn out when O=C(c1ccccc1)N1CCc2c([nH]c3ccc(Cl)cc23)C1c1ccc(OCCCn2cncn2)cc1 (stereo not drawn) [Compound 1139] was run?
**A.** 8 to 40 nM

**Q.** How did the EC50 turn out when O=C(c1ccccc1)N1CCc2c([nH]c3ccc(Cl)cc23)C1c1ccc(OCCCN2CCOCC2)cc1 (stereo not drawn) [Compound 1140] was run?
**A.** 40 to 200 nM

**Q.** Which EC50 does the source give for O=C(C1CC1)N1CCc2c([nH]c3ccc(Cl)cc23)C1c1ccc(OCCCN2CCOCC2)cc1 (stereo not drawn) [Compound 1141] here?
**A.** 40 to 200 nM

**Q.** O=C(C1CC1)N1CCc2c([nH]c3ccc(Cl)cc23)C1c1ccc(OCCCn2cncn2)cc1 (stereo not drawn) [Compound 1142] was tested. Which EC50 did it give?
**A.** 8 to 40 nM

**Q.** For COc1ccc(OC(=O)N2CCc3c([nH]c4ccc(Cl)cc34)C2c2ccc(OCCCn3nccn3)c(OC)c2)cc1 (stereo not drawn) [Compound 1146], which EC50 is on record?
**A.** 8 to 40 nM

**Q.** How did the EC50 turn out when COc1cc(C2c3[nH]c4ccc(Cl)cc4c3CCN2C(=O)Oc2ccc(F)cc2)ccc1OCCCn1ccnn1 (stereo not drawn) [Compound 1147] was run?
**A.** 8 to 40 nM

**Q.** How did the EC50 turn out when COc1cc(C2c3[nH]c4ccc(Cl)cc4c3CCN2C(=O)Oc2ccc(F)cc2)ccc1OCCCn1nccn1 (stereo not drawn) [Compound 1148] was run?
**A.** 8 to 40 nM

**Q.** For COc1ccc(C2c3[nH]c4ccc(Cl)cc4c3CCN2C(=O)OCCn2nccn2)cc1 (stereo not drawn) [Compound 1156], which EC50 is on record?
**A.** 8 to 40 nM

**Q.** With COc1ccc(C2c3[nH]c4ccc(Cl)cc4c3CCN2C(=O)OCCn2ccnn2)cc1 (stereo not drawn) [Compound 1157] as the compound, how does the EC50 read?
**A.** 200 to 1000 nM

**Q.** For COc1ccc(C2c3[nH]c4ccc(Cl)cc4c3CCN2C(=O)OCCn2cncn2)cc1 (stereo not drawn) [Compound 1158], which EC50 is on record?
**A.** > 1000 nM

**Q.** For CC1(C)OC[C@H](CCOc2ccc(C3c4[nH]c5ccc(Cl)cc5c4CCN3C(=O)Oc3ccc(Cl)cc3)cc2)O1 (stereo partly drawn) [Compound 1162], which EC50 is on record?
**A.** < 8 nM

**Q.** For CCOC(=O)N1CCc2c([nH]c3ccc(Cl)cc23)C1c1ccc(OCC[C@H]2COC(C)(C)O2)cc1 (stereo partly drawn) [Compound 1163], which EC50 is on record?
**A.** < 8 nM

**Q.** For CCCOC(=O)N1CCc2c([nH]c3ccc(Cl)cc23)C1c1ccc(OCC[C@H]2COC(C)(C)O2)cc1 (stereo partly drawn) [Compound 1164], which EC50 is on record?
**A.** < 8 nM

**Q.** How did the EC50 turn out when CC(C)COC(=O)N1CCc2c([nH]c3ccc(Cl)cc23)C1c1ccc(OCC[C@H]2COC(C)(C)O2)cc1 (stereo partly drawn) [Compound 1165] was run?
**A.** < 8 nM

**Q.** Which EC50 does the source give for CC#CCOC(=O)N1CCc2c([nH]c3ccc(Cl)cc23)C1c1ccc(OCC[C@H]2COC(C)(C)O2)cc1 (stereo partly drawn) [Compound 1166] here?
**A.** < 8 nM

**Q.** CC(C)(C)COC(=O)N1CCc2c([nH]c3ccc(Cl)cc23)C1c1ccc(OCC[C@H]2COC(C)(C)O2)cc1 (stereo partly drawn) [Compound 1167] was tested. Which EC50 did it give?
**A.** < 8 nM

**Q.** O=C(Oc1ccc(Cl)cc1)N1CCc2c([nH]c3ccc(Cl)cc23)C1c1ccc(OCC[C@H](O)CO)cc1 (stereo partly drawn) [Compound 1172] was tested. Which EC50 did it give?
**A.** < 8 nM

**Q.** How did the EC50 turn out when CCOC(=O)N1CCc2c([nH]c3ccc(Cl)cc23)C1c1ccc(OCC[C@H](O)CO)cc1 (stereo partly drawn) [Compound 1173] was run?
**A.** < 8 nM

**Q.** For CCCOC(=O)N1CCc2c([nH]c3ccc(Cl)cc23)C1c1ccc(OCC[C@H](O)CO)cc1 (stereo partly drawn) [Compound 1174], which EC50 is on record?
**A.** 8 to 40 nM

**Q.** CC(C)COC(=O)N1CCc2c([nH]c3ccc(Cl)cc23)C1c1ccc(OCC[C@H](O)CO)cc1 (stereo partly drawn) [Compound 1175] was tested. Which EC50 did it give?
**A.** 8 to 40 nM
